Structures can show the parent of a compound that is named as a salt. Where two headings read alike, the source gives them in different places.
Legend:
[1] = system: Cryptosporidium parvum; experiment: qRT-PCR assay of the growth of C. parvum in vitro in HCT-8 host cells (primary and secondary screening, EC50); format: cell-based; details: Cryptosporidium parvum, HCT-8; for inhibition at 3.3 µM: secondary screening at 3.3 uM, read-out: % Inhibition (3.3 uM)
[2] = system: HCT-8 host cells (Hs18S)
[3] = in vitro; details: for cytotoxicity at 41 h, 10 µM: human
[4] = primary screening at 10 uM, read-out: Inhibition (%)
[5] = primary screening at 10 uM, treated vs control

Structure (SMILES) | inhibition at 10 µM [1, 4] | Hs18S ΔCT [2, 5] | cytotoxicity at 10 µM [3] | Hs18S ΔCT ([2]; human, 41 h, 10 μM) | cytotoxicity at 41 h, 10 µM [3] | inhibition at 3.3 µM [1] | inhibition at 10 µM [1] | Hs18S ΔCT [2]
CC1=C2C(=CO[C@H](C)[C@H]2C)C(O)=C(C(=O)O)C1=O [CITRININ] | 8.51% | 0.13 | 8.3% | – | – | – | – | –
COc1cc(OC)c2ccc(=O)oc2c1 [CITROPTEN] | -43.6% | – | – | 0.38 | 23.1% | – | – | –
NC(=O)NCCC[C@H](N)C(=O)O [CITRULLINE] | -44.7% | 0.62 | 34.9% | – | – | – | – | –
CC(=O)OC1CCC23CC1(C)CCC2C(C)(C)CC3OC(C)=O (stereo not shown) [CLOVANEDIOL DIACETATE] | -0.83% | – | – | 0.55 | 31.9% | – | – | –
COc1cc2c(c(OC)c1OC)-c1ccc(=O)c(O)cc1[C@@H](NC(C)=O)CC2 [COLCHICEINE] | 13.7% | -0.43 | -34.9% | – | – | – | – | –
COc1cc2c(c(OC)c1OC)-c1ccc(OC)c(=O)cc1[C@@H](NC(C)=O)CC2 [COLCHICINE] | 24.9% | -0.34 | -26.5% | – | – | – | – | –
C=C[C@@]1(C)CC(=O)[C@]2(O)[C@@]3(C)[C@@H](O)CCC(C)(C)[C@@H]3[C@H](O)[C@H](OC(C)=O)[C@@]2(C)O1 [COLFORSIN] | 24.8% | – | – | 0.14 | 9.4% | – | – | –
C[C@H]1[C@H]2CC[C@H]3[C@@H]4CC=C5C[C@@H](N(C)C)CC[C@]5(C)[C@H]4CC[C@]23CN1C [CONESSINE] | -2.33% | – | – | -0.14 | -10.4% | – | – | –
COc1c2c(cc3c1OCO3)CC[N+](C)=C2 [COTARNINE CHLORIDE] | -14.5% | – | – | -0.20 | -15.2% | – | – | –
CN1C(=O)CC[C@H]1c1cccnc1 [COTININE] | 42.6% | – | – | 0.41 | 24.7% | – | – | –
O=c1ccc2ccccc2o1 [COUMARIN] | 13% | – | – | -0.05 | -3.8% | – | – | –
CN1CC(=O)NC1=N [CREATININE] | 20.5% | – | – | 0.00 | 0.2% | – | – | –
CC(C)(O)CC[C@@H](O)[C@](C)(O)[C@H]1CC[C@@]2(O)C3=CC(=O)[C@@H]4C[C@@H](O)[C@@H](O)C[C@]4(C)[C@H]3CC[C@]12C [CRUSTECDYSONE] | 39.8% | -0.15 | – | – | -10.6% | – | – | –
C[C@H]1COC2=C1C(=O)C(=O)c1c2ccc2c1CCCC2(C)C [CRYPTOTANSHINONE] | 95.3% | 0.18 | 11.9% | – | – | -85% | – | –
COc1cc(/C=C/C(=O)CC(=O)/C=C/c2ccc(O)c(OC)c2)ccc1O [CURCUMIN] | 24.3% | 0.03 | – | – | 2.4% | – | – | –
NCCSSCCN [CYSTAMINE DIHYDROCHLORIDE] | 5.08% | – | – | -0.15 | -11.2% | – | – | –
Nc1ccn([C@@H]2O[C@H](CO)[C@@H](O)[C@H]2O)c(=O)n1 [CYTIDINE] | 36.7% | – | – | -0.53 | -44.6% | – | – | –
O=c1cccc2n1C[C@@H]1CNC[C@H]2C1 [CYTISINE] | – | – | -20% | – | – | – | 16% | -0.26
O=c1c(-c2ccc(O)cc2)coc2cc(O)ccc12 [DAIDZEIN] | 39.2% | – | – | 0.01 | 0.7% | – | – | –
C=CC(C1=CC(=O)C(OC)=CC1=O)c1ccc(O)cc1 (stereo not shown) [DALBERGIONE, 4-METHOXY-4'-HYDROXY-] | 30.3% | – | – | 0.09 | 6.1% | – | – | –

Structure (SMILES) | inhibition at 10 µM [1, 4] | Hs18S ΔCT [2, 5] | cytotoxicity at 10 µM [3] | Hs18S ΔCT ([2]; human, 41 h, 10 μM) | cytotoxicity at 41 h, 10 µM [3] | inhibition at 3.3 µM [1] | inhibition at 10 µM [1] | Hs18S ΔCT [2]
C=CC(C1=CC(=O)C=CC1=O)c1ccccc1 (stereo not shown) [DALBERGIONE] | 32.8% | – | – | 0.33 | 20.4% | – | – | –
O=C1c2cccc(O)c2C(=O)c2c(O)cccc21 [DANTHRON] | 23% | -0.12 | – | – | -8.6% | – | – | –
CC(=O)N(O)CCCCCNC(=O)CCC(=O)N(O)CCCCCNC(=O)CCC(=O)N(O)CCCCCN [DEFEROXAMINE MESYLATE] | -48.5% | – | – | 0.31 | 19.6% | – | – | –
CC(C)c1ccc2c(c1)CC[C@H]1[C@](C)(C(N)=O)CCC[C@]21C [DEHYDROABIETAMIDE] | 8.3% | – | – | -0.01 | -0.7% | – | – | –
C[C@H](CCC(=O)O)[C@H]1CC[C@H]2[C@@H]3C(=O)C[C@@H]4CC(=O)CC[C@]4(C)[C@H]3CC(=O)[C@]12C [DEHYDROCHOLIC ACID] | -24.5% | – | – | -0.06 | -4.2% | – | – | –
COc1cc2c(cc1OC)-c1c(oc3c4c(ccc3c1=O)OC(C(C)C)C4)CO2 (stereo not shown) [DEHYDRODIHYDROROTENONE] | -21.6% | 0.06 | 4.4% | – | – | – | – | –
C[C@]12CC[C@H](O)CC1=CC[C@@H]1[C@@H]2CC[C@]2(C)C(=O)CC[C@@H]12 [DEHYDROEPIANDROSTERONE] | 7.05% | -0.03 | -1.9% | – | – | – | – | –
C=C(C)[C@H]1Cc2c(ccc3c(=O)c4c(oc23)COc2cc(OC)c(OC)cc2-4)O1 [DEHYDROROTENONE] | -38.5% | -0.07 | -4.9% | – | – | – | – | –
COc1ccc2c(c1)OCc1c-2oc2cc(OC)ccc12 [DEHYDROVARIABILIN] | 22% | – | – | -0.42 | -33.6% | – | – | –
Nc1ncnc2c1ncn2[C@H]1C[C@H](O)[C@@H](CO)O1 [DEOXYADENOSINE] | 44.5% | – | – | -0.35 | -27.3% | – | – | –
C[C@H](CCC(=O)O)[C@H]1CC[C@H]2[C@@H]3CC[C@@H]4C[C@H](O)CC[C@]4(C)[C@H]3C[C@H](O)[C@]12C [DEOXYCHOLIC ACID] | -39.8% | – | – | 0.55 | 31.7% | – | – | –
COc1cc(OC)c2c(OC)c(-c3ccc4c(c3)OCO4)c(=O)oc2c1 [DERRUSNIN] | 14.8% | -0.10 | -7.3% | – | – | – | – | –
COc1cc(OC)c2c(=O)c(-c3ccc4c(c3)OCO4)coc2c1 [DERRUSTONE] | 61.3% | – | – | 0.39 | 23.9% | -77% | – | –
C=CCSCC=C [DIALLYL SULFIDE] | 19.6% | – | – | -0.01 | -0.8% | – | – | –
COc1cc(C)c(C(=O)Oc2cc(C)c(C(=O)O)c(O)c2C)c(OC)c1C [DIFFRACTAIC ACID] | -3.8% | – | – | 0.91 | 46.7% | – | – | –
COc1cc(OC)c(-c2c(OC)cc(OC)cc2OC)c(OC)c1 [DIFUCOL HEXAMETHYL ETHER] | -10.9% | 0.08 | 5.1% | – | – | – | – | –
C[C@@H]1CC[C@@]2(OC1)O[C@H]1[C@@H](O)[C@H]3[C@@H]4CC[C@H]5C[C@@H](O[C@@H]6O[C@H](CO)[C@H](O[C@@H]7O[C@H](CO)[C@@H](O)[C@H](O[C@@H]8OC[C@@H](O)[C@H](O)[C@H]8O)[C@H]7O[C@@H]7O[C@H](CO)[C@H](O)[C@H](O[C@@H]8O[C@H](CO)[C@@H](O)[C@H](O)[C@H]8O)[C@H]7O)[C@H](O)[C@H]6O)[C@H](O)C[C@]5(C)[C@H]4CC[C@]3(C)[C@H]1[C@@H]2C [DIGITONIN] | -16.6% | -0.12 | -8.8% | – | – | – | – | –
C[C@]12CC[C@H](O)C[C@H]1CC[C@@H]1[C@@H]2C[C@@H](O)[C@]2(C)[C@@H](C3=CC(=O)OC3)CC[C@]12O [DIGOXIGENIN] | 95.6% | 0.33 | 19.2% | – | – | 69% | – | –
Cc1c(O)c(O)cc2c1CC=C1[C@@]2(C)CC[C@@]2(C)[C@@H]3C[C@](C)(C(=O)O)CC[C@]3(C)CC[C@]12C [DIHYDROCELASTROL] | 92.5% | 1.27 | 58.7% | – | – | -66% | – | –
COC(=O)C[C@H]1C(C)(C)[C@@H](OC(C)=O)[C@@H]2CC3C4CC(=O)O[C@@H](c5ccoc5)[C@]4(C)CCC3[C@@]1(C)C2=O (stereo partly shown) [DIHYDROFISSINOLIDE] | 4.5% | – | – | 0.08 | 5.3% | – | – | –

— PMC6736568, “Discovery of Novel Anti-cryptosporidial Activities From Natural Products by in vitro High-Throughput Phenotypic Screening” (Frontiers in Microbiology, 2019)
